No end group written: not given here.
Columns and labels:
[1] = test system: SFO^Ptger3 neurons; test: Fiber photometry calcium recording from SFO^Ptger3 neurons (GCaMP7s); type: in vivo, mice; details: for calcium response of SFO^Ptger3 neurons to control stimuli (normalized ΔF/F): i.p., mannitol 2 M, 10 ml per kg BW, ghrelin 10 μg, LiCl 0.15 M, 15 ml per kg BW
Method: Calcium measurement from SFO^Ptger3 neurons: Mice were headfixed to eliminate the interference from movement. Photometry recording was performed using a commercial photometry system (Neurophotometrics, FP3002). Two LED of different wavelength (470 nm and 415 nm) were bandpass filtered and a patch cord (0.48 NA, Doric lenses) was attached to the photometry system via a 20× objective. The sampling rate was fixed at 40 Hz. Data were acquired with Bonsai (Neurophotometrics) by drawing a region of interest and calculating the mean pixel value, and then were exported to MATLAB for further analysis. The isosbestic signal (415 nm) was fit with a biexponential model and was then linearly scaled to the calcium signal (470 nm). The ΔF/F was calculated as (raw 470-nm signal−fitted 415-nm signal)/(fitted 415-nm signal). For all sessions, stimulus time was recorded through a customized TTL button. During PGE2 activation experiment (FIG. 7C), mice were given PGE2 at a dose of 1 mg per kg BW or DMSO in 100 μl PBS subcutaneously. During other internal-state treatments, mice were exposed to the following stimuli via intraperitoneal injection: 2M mannitol (10 ml per kg BW); […] of ghrelin (in 100 μl PBS), and 0.15M LiCl (15 ml per kg BW). All analysis used the average of 5 min prior to the stimulus as a baseline mean. Normalized ΔF/F was calculated by subtracting the baseline ΔF/F from the mean ΔF/F between 100 and 1500 sec after the stimulus.

[2] = test system: prostaglandin production; test: NSAIDs-induced loss-of-tolerance (lick number, 30 min); type: in vivo, mice; details: sodium depletion; ibuprofen 1 mg per ml drinking water three days plus aspirin 40 mg per kg BW i.p., given together
Method: NSAIDs-induced loss-of-tolerance: NSAIDs were used to suppress PGE2 production. Mice were given water supplemented with ibuprofen (1 mg per ml) for three days. On the second day, mice were injected with furosemide to induce sodium depletion. On the third day, aspirin (40 mg per kg BW) was injected intraperitoneally 1-2 hr prior to the lick access. Lick number was recorded for 30 min.

[3] = test system: pre-LC^Pdyn neurons; test: High-salt licks during pre-LC^Pdyn photostimulation with or without amiloride; type: in vivo, mice
Method: (§1) For 5-sec brief access assay, mice were presented with 1 bottle of solution for 30 sec per trial for maximum waiting time before the first lick, and 40 sec between trials. After an initial lick, animals were allowed to drink the solution for additional 5 sec before a shutter closed. To avoid taste conditioning effect, animals were tested with only one solution per day. After testing aversive solutions, bitter and high salt, animals sometimes refused to drink any solution. These animals were retrained with water and low salt until their behavioral level recovers to our criteria stated above.
(§2) For optogenetic activation, 473-nm laser-pulse sequences were delivered via an optic cable (Doric Lenses, MFP—FC-ZF) with pulse generators (World Precision Instruments, SYS-A310 or Quantum composers, Sapphire 9200). The laser intensity was maintained at 10 mW at the tip of the fiber. […] For 5-sec brief access assay, the light stimulation was given at 20 Hz throughout the trial except the paradigm in FIG. 3C.

[4] = test system: SFO^Ptger3 neurons; test: Salt tolerance induced by SFO^Ptger3 photostimulation with or without amiloride; type: in vivo, mice
Method: as §1, §2

[5] = test system: dopamine release in the nucleus accumbens (NAc); test: Dopamine release in the NAc (dLight1.3b fiber photometry) during high-salt consumption; type: in vivo, mice
Method: Dopamine measurement: Mice were freely moving in the chamber with gustometer. Bulk fluorescence signals were collected with a fiber photometry setting as described with the light of 405 nm and 490 nm. The ΔF/F was calculated as (raw 490-nm signal−fitted 405-nm signal)/(fitted 405-nm signal). Mice were induced with osmotic thirst 10-15 min, or sodium depletion 24 hr before the access of 500 mM NaCl. For wild-type mice, under PGE2 activation condition, mice were injected PGE2 at a dose of 1 mg per kg BW subcutaneously 1 hr before the shutter open. For Ptger3cre mice, mice were injected with either CNO or vehicle 20 min before the shutter opened. Lick number was recorded simultaneously with the fluorescence signal collection. The first lick bout was identified with the lick rate more than 3.5 and lick number more than 5, with less than 1-sec interval to the subsequent lick. If no lick bout was detectable (observed with osmotic thirst), any first lick event was included into the data. All baseline signals were calculated by averaging signals between 10-20 sec prior to the first lick. Response amplitude (normalized ΔF/F) was calculated by subtracting the baseline ΔF/F from the mean ΔF/F between 0 and 10 sec after the lick initiated.

[6] = test system: SFO/OVLT^Ptger3 neurons; test: Chemogenetic inhibition (AAV-DIO-hM4Di + CNO) of LT^Ptger3 neurons, 30-min consumption assay; type: in vivo, mice
Method: Surgery procedures were performed according to methods known in the art. Briefly, ketamine (1 mg/ml) and xylazine (10 mg/ml) in saline were injected intraperitoneally at a dose of 10 ml per kg body weight (BW) for anaesthesia. Ketoprofen was injected subcutaneously at a dose of 5 ml per kg BW. Surgery was performed with a stereotaxic apparatus (Narishige, SR-5M-HT) on a heating pad at 37° C. Virus was delivered with a microprocessor-controlled injection system (World Precision Instruments, Nanolitre 2000) at 100 nl/min. The following coordinates were used: for pre-LC: anterior-posterior (AP), 9,000, medial-lateral (ML), 1,000, ventral-dorsal (VD), 3,800; for SFO: AP, 4,000, ML, 0, VD, 2,500; for OVLT: AP, 2,475, ML, 0, VD, 4,750; for dorsal part of the NAc medial shell: AP, 2,100, ML, 700, VD, 4,000. For optogenetic experiments, virus was delivered unilaterally at a volume of 120-200 nl. Implants were made by gluing a 200-μm fibre bundle (Thorlabs, FT200EMT) to a ceramic ferrule (Thorlabs, CF230-10) with epoxy. The fibre implant was placed 200 μm above the virus injection site. For fiber photometry experiments, virus was delivered at a volume of 150-200 nl (calcium measurement) or 500 nl (dopamine measurement) per region. A 400-μm fiber bundle (Thorlabs, FT400UMT) was used instead. For chemogenetic inhibition experiments, virus was delivered at 180-200 nl per region. For ablation experiments, virus was delivered at 200-250 nl per region. For local knockdown experiments, virus was delivered at 150-200 nl per region. At the end of experiments, all animals were euthanized for histological examination.
For 30-min access assay, mice were presented with 1 bottle for 30 min and consumption was measured.
For chemogenetic experiments, clozapine N-oxide (CNO) was administered intraperitoneally at doses of 10 mg per kg BW for inhibition or 1 mg per kg BW for activation 20 min before the consumption trial started. Pure water instead of saline was used as vehicle to avoid sodium repletion.

[7] = test system: SFO; test: Fos immunofluorescence after subcutaneous PGE2 injection; type: in vivo, mice
Method: PGE2-induced behavior: PGE2 was injected subcutaneously at a dose of 1 mg per kg BW. Animals had no food or water for 15-90 min before behavioral experiments. For immunohistochemistry, PGE2 was injected at a dose of 3 mg per kg BW and maintained with no food or water for 60 min before euthanasia.
Mice were euthanized with CO2 and perfused with PBS and 4% paraformaldehyde. Extracted mouse brains were fixed overnight at 4° C. in 4% PFA and sectioned coronally to 100-μm slides via vibratome (Leica, VT-1000 S). The sections were blocked (10% donkey serum, 0.2% Triton X-100 in PBS) for 1 hr at room temperature and incubated with primary antibody at 4° C. overnight. The following primary antibodies were used: rabbit anti-FOS (1:500), sheep anti-Foxp2 (1:2,000), chicken anti-GFP (1:3,000), rat anti-mCherry (1:500), and goat anti-nNos (1:500). The sections were washed three times with PBS and incubated with the secondary antibody (1:500; Jackson Immunoresearch) and DAPI ([…]) for 4 hr under room temperature. After three times wash with PBS, the sections were mounted on the glass slide. All slides were imaged with confocal microscope (Leica, TCS SP8) or slide scanner (Olympus, BX61VS).

[8] = test system: Ptger3; test: PGE2-induced behavior: high-salt consumption / aversive taste tolerance (gustometer lick assay); type: in vivo, mice
Method: Prostaglandin: PGE2 powder was diluted in DMSO at 50 mg/ml as stock. For behavioral assay, we used the final concentration of 1 mg per kg BW in PBS containing 1.7% DMSO (v/v). The same vehicle with DMSO was used as control.
All assays were performed in a custom gustometer (Dialog Instruments). All animals were at least trained with osmotic thirst and sodium depletion prior to the behavior trials. Animals were trained to drink at least 200 licks for 500 mM NaCl in 30 min under sodium depletion. Generally, two training sessions with sodium depletion are sufficient to achieve this criterion. […] To prevent this, all tastants at lower concentrations were exposed to animals before experiment. For tolerance tests, one-bottle consumption assay was used in order to avoid preference development during the session.

[9] = test system: mice; details: thirst; formalin in dorsal hindpaw
Method: Formalin-induced tolerance: Mice were injected with formalin or PBS in the dorsal hindpaw 45-60 min prior to the lick access. Osmotic thirst was induced 10-15 min prior to the lick access. Lick number was recorded for 30 min.

[10] = test system: circulating PGE2; details: formalin-induced inflammation
Method: Videos were taken for 1 hr following the injection and analyzed for the time mice spent licking the dorsal hindpaw. Mice with more than 30-sec licking paw time in the first 5 min after injection were used for video analysis. Each mouse was subjected to formalin injection twice: in one hind paw under sated conditions, and another under either sodium depleted or photostimulated conditions. To test the effect of optogenetic stimulation, light stimulation was given at 20 Hz with a 1-sec on 3-sec off paradigm for 60 min.
Mice were anaesthetized with isoflurane. Blood was collected via heart puncture into EDTA-coated tubes (BD Microtainer, 365974) and kept on ice. Plasma was then separated by centrifugation at 1,500 g for 20 min. ELISA assays were performed following the protocols of PGE2 ELISA kit (Cayman Chemical, 514531), serotonin ELISA kit (Eagle Bio, SER39-KO1), and progesterone ELISA kit (Cayman Chemical, 582601).

OC[C@@H](O)[C@@H](O)[C@H](O)[C@H](O)CO [mannitol]
calcium response of SFO^Ptger3 neurons to control stimuli (normalized ΔF/F) [1]: no activation

CC(C)Cc1ccc(C(C)C(=O)O)cc1 (stereo not shown) [ibuprofen]
salt tolerance (high salt) [2]: significantly reduced salt tolerance

[Cl-].[Li+] [LiCl]
calcium response of SFO^Ptger3 neurons to control stimuli (normalized ΔF/F) [1]: no activation

N=C(N)NC(=O)c1nc(Cl)c(N)nc1N [amiloride]
sodium consumption (500 mM NaCl licks) induced by pre-LC^Pdyn photostimulation [3]: no longer induced sodium consumption
SFO^Ptger3-mediated salt tolerance [4]: no effect

C[N+]1([O-])CCN(C2=Nc3cc(Cl)ccc3Nc3ccccc32)CC1 [CNO, clozapine N-oxide]
dopamine signals in the NAc (dLight1.3b) ([5]; hM3Dq in SFO^Ptger3 neurons, CNO i.p. 1 mg per kg BW vs vehicle, high-salt ingestion): greatly enhanced
tolerance toward aversive salt (500 mM NaCl) ([6]; hypovolemic state, hM4Di in SFO/OVLT, CNO i.p.): drastically suppressed tolerance
solute intake (water or high salt) ([6]; osmotic thirst, LT^Ptger3 inhibition): no effect
tolerance of low salt with quinine or KCl ([6]; sodium depletion, LT^Ptger3-inhibited mice): no longer tolerated
tolerance of low salt with KCl or quinine ([6]; sodium depletion, only SFO^Ptger3 neurons inhibited (hM4Di in SFO)): blunted tolerance
tolerance toward aversive salt ([6]; sodium-depleted state, hM4Di in SFO/OVLT, CNO i.p. 10 mg per kg BW): drastically suppressed tolerance

ghrelin (GSSFLSPEHQRVQQRKESKKPPAKLQPR; ends and bridges not checked; UniProt Q9UBU3 24-51, looked up) [control stimulus for hunger]
calcium response of SFO^Ptger3 neurons to control stimuli (normalized ΔF/F) [1]: no activation

CCCCC[C@H](O)/C=C/[C@H]1[C@H](O)CC(=O)[C@@H]1C/C=C\CCCC(=O)O [PGE2, Prostaglandin E2]
calcium dynamics of SFO^Ptger3 neurons (normalized ΔF/F) ([1]; subcutaneous PGE2 1 mg per kg BW vs vehicle): time-locked calcium increases
Fos immunofluorescence signals in the SFO ([7]; peripheral (subcutaneous) PGE2 3 mg per kg BW, Ptger3-dependent): strong Fos immunofluorescence signals
Fos signal in the pre-LC ([7]; subcutaneous PGE2, scramble- and Ptger3-shRNA-injected mice): No Fos signal
PGE2-mediated high-salt tolerance ([8]; Ptger3 KD animals): largely abolished
PGE2-mediated high-salt tolerance ([8]; Ptger3^Cre/Cre animals): largely abolished
salt tolerance (500 mM NaCl consumption) ([8]; osmotic thirst, wild-type or Ptger3^Cre/wt, PGE2 s.c. 1 mg per kg BW): increased salt tolerance
appetite (high-salt consumption) ([8]; sated conditions, PGE2 s.c.): did not induce any appetite
high-salt consumption during dLight recording ([5]; thirsty mice, subcutaneous PGE2 1 mg per kg BW): increased high-salt consumption
dopamine release in the NAc (dLight1.3b) ([5]; thirsty mice, subcutaneous PGE2, 500 mM NaCl): enhanced dopamine release

CC(=O)Oc1ccccc1C(=O)O [aspirin]
salt tolerance (high salt) [2]: significantly reduced salt tolerance

C=O [formalin]
high salt tolerance (500 mM NaCl) [9]: partially induced high salt tolerance
water intake [9]: unaffected
circulating PGE2 levels [10]: increased the PGE2 levels

Reference: patent US20250152602A1, “MODULATION OF AVERSIVE AND SALT TASTES” (California Institute of Technology, priority 2023, published 2025)
